According to ChEMBL document CHEMBL4706583, “2-Anilinoquinoline based arylamides as broad spectrum anticancer agents with B-RAF/C-RAF kinase inhibitory effects: Design, synthesis, in vitro cell-based and oncogenic kinase assessments” (Eur J Med Chem, 2020):
Active and inactive are the calls of the source. The rule behind the calls is not given here.

Legend:
[1] = system: Panel NCI-60 (60 carcinoma cell lines); experiment: Growth inhibition of human Panel NCI-60 (60 carcinoma cell lines) cells at 10 uM measured after 48 hrs by SRB assay relative to control; format: functional; details: read-out: GI
[2] = molecular target: RAF proto-oncogene serine/threonine-protein kinase (Homo sapiens, UniProt P04049); experiment: Inhibition of human CRAF using MEK1 (K97R) as substrate in presence of [gamma-33P]ATP by scintillation counting method
Sequence of RAF proto-oncogene serine/threonine-protein kinase (P04049 whole entry): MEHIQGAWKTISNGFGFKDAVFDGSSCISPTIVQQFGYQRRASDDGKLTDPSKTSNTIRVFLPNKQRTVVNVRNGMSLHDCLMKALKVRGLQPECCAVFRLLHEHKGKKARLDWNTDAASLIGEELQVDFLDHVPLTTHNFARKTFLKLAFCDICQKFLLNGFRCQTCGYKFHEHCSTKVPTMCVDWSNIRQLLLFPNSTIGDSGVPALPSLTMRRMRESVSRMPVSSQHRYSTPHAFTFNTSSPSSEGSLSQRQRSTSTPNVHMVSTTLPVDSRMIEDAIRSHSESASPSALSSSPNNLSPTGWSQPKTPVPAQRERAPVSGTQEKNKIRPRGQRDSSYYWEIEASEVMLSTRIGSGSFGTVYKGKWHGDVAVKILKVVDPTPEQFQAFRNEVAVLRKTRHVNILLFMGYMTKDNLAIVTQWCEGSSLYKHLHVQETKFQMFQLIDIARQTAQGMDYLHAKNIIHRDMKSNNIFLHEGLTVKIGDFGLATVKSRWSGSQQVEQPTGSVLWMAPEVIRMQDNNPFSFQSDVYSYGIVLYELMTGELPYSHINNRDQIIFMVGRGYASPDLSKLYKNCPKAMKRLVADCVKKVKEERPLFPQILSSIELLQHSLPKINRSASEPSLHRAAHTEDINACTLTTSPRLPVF

[3] = molecular target: Serine/threonine-protein kinase B-raf (Homo sapiens, UniProt P15056); experiment: Inhibition of human BRAF using MEK1 (K97R) as substrate in presence of [gamma-33P]ATP by scintillation counting method
Sequence of Serine/threonine-protein kinase B-raf (Homo sapiens, UniProt P15056) (P15056 whole entry): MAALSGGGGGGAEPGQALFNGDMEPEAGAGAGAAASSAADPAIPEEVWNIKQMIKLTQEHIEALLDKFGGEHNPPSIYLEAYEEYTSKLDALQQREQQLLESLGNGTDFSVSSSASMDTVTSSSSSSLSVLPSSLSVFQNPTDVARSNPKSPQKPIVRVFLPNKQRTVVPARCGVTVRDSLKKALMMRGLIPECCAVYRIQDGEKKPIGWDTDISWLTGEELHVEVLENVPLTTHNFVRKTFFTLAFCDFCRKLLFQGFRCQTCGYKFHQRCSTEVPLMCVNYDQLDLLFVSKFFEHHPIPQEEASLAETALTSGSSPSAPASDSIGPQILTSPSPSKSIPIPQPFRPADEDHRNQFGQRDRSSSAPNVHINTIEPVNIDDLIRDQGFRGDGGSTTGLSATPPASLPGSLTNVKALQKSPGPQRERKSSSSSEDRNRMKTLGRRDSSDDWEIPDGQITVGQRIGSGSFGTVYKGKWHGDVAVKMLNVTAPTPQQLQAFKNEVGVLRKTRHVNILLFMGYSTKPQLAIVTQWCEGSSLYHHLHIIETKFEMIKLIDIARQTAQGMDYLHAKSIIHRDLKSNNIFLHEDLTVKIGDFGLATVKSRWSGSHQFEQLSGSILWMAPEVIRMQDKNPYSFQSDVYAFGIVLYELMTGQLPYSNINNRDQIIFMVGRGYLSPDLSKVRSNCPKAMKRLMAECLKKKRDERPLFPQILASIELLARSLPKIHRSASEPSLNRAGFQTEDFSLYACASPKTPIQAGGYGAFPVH

[4] = molecular target: Serine/threonine-protein kinase B-raf (Homo sapiens, UniProt P15056, V600E); experiment: Inhibition of human BRAF V600E mutant using MEK1 (K97R) as substrate in presence of [gamma-33P]ATP by scintillation counting method
Sequence of Serine/threonine-protein kinase B-raf (Homo sapiens, UniProt P15056, V600E) (P15056 2-766 V600E limits assumed): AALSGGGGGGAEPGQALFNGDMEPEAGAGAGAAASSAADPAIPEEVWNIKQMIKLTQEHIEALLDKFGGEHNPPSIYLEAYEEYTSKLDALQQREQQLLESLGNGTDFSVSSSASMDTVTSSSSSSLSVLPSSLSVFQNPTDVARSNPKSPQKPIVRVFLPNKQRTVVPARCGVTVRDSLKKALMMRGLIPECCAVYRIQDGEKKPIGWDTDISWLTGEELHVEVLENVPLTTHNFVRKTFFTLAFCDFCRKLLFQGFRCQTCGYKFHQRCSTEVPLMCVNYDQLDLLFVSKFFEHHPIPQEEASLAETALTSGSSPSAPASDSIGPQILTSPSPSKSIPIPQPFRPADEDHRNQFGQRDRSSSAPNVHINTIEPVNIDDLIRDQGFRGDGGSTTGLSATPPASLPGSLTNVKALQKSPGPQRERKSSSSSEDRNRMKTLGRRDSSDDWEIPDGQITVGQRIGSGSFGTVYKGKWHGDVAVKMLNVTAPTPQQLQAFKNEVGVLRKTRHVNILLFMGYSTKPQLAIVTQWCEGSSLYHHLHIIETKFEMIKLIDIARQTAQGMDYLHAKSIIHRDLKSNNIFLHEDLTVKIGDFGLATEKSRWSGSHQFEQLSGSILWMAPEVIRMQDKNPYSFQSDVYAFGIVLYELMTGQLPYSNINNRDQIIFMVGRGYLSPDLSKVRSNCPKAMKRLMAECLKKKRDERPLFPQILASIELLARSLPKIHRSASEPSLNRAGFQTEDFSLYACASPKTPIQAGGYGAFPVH

[5] = species on record: Homo sapiens; experiment: Selectivity ratio of IC50 for inhibition of human BRAF V600E mutant to IC50 for inhibition of human CRAF
[6] = system: HT-29; experiment: Growth inhibition of human HT-29 cells at 10 uM measured after 48 hrs by SRB assay relative to control; format: functional; details: read-out: GI
[7] = system: CCRF-CEM; experiment: Growth inhibition of human CCRF-CEM cells at 10 uM measured after 48 hrs by SRB assay relative to control; format: functional; details: read-out: GI
[8] = system: K562; experiment: Growth inhibition of human K562 cells at 10 uM measured after 48 hrs by SRB assay relative to control; format: functional; details: read-out: GI
[9] = system: MOLT-4; experiment: Growth inhibition of human MOLT-4 cells at 10 uM measured after 48 hrs by SRB assay relative to control; format: functional; details: read-out: GI
[10] = system: RPMI-8226; experiment: Growth inhibition of human RPMI-8226 cells at 10 uM measured after 48 hrs by SRB assay relative to control; format: functional; details: read-out: GI
[11] = system: SR; experiment: Growth inhibition of human SR cells at 10 uM measured after 48 hrs by SRB assay relative to control; format: functional; details: read-out: GI
[12] = system: A549; experiment: Growth inhibition of human A549 cells at 10 uM measured after 48 hrs by SRB assay relative to control; format: functional; details: read-out: GI
[13] = system: HOP-92; experiment: Growth inhibition of human HOP-92 cells at 10 uM measured after 48 hrs by SRB assay relative to control; format: functional; details: read-out: GI
[14] = system: NCI-H522; experiment: Growth inhibition of human NCI-H522 cells at 10 uM measured after 48 hrs by SRB assay relative to control; format: functional; details: read-out: GI
[15] = system: HCT-116; experiment: Growth inhibition of human HCT-116 cells at 10 uM measured after 48 hrs by SRB assay relative to control; format: functional; details: read-out: GI
[16] = system: 786-0; experiment: Growth inhibition of human 786-0 cells at 10 uM measured after 48 hrs by SRB assay relative to control; format: functional; details: read-out: GI
[17] = system: A498; experiment: Growth inhibition of human A498 cells at 10 uM measured after 48 hrs by SRB assay relative to control; format: functional; details: read-out: GI
[18] = system: UO-31; experiment: Growth inhibition of human UO-31 cells at 10 uM measured after 48 hrs by SRB assay relative to control; format: functional; details: read-out: GI
[19] = system: PC-3; experiment: Growth inhibition of human PC-3 cells at 10 uM measured after 48 hrs by SRB assay relative to control; format: functional; details: read-out: GI
[20] = system: T47D; experiment: Growth inhibition of human T47D cells at 10 uM measured after 48 hrs by SRB assay relative to control; format: functional; details: read-out: GI
[21] = species on record: Sus scrofa; experiment: Induction of porcine brain tubulin polymerization at 10 uM measured at 30 secs interval for 60 mins by fluorescence assay; format: tissue-based

Compound | inhibition of growth at 10 µM [1] [%] | IC50 [2] [µM] | IC50 [3] [µM] | IC50 [4] [µM] | inhibition of growth at 10 µM [6] [%] | inhibition of growth at 10 µM [7] [%] | inhibition of growth at 10 µM [8] [%] | inhibition of growth at 10 µM [9] [%] | inhibition of growth at 10 µM [10] [%] | inhibition of growth at 10 µM [11] [%] | inhibition of growth at 10 µM [12] [%] | inhibition of growth at 10 µM [13] [%] | inhibition of growth at 10 µM [14] [%] | inhibition of growth at 10 µM [15] [%] | inhibition of growth at 10 µM [16] [%] | inhibition of growth at 10 µM [17] [%] | inhibition of growth at 10 µM [18] [%] | inhibition of growth at 10 µM [19] [%] | inhibition of growth at 10 µM [20] [%] | also measured
COc1cccc2nc(Nc3cccc(NC(=O)c4cc(-n5cnc(C)c5)cc(C(F)(F)F)c4)c3)ccc12 | 32.6 | 0.414 | 9.28 | 1.1 |  |  |  |  |  |  |  |  |  |  |  |  |  |  |  | Ratio IC50 [5]: 2
COc1cccc2nc(Nc3cccc(NC(=O)c4ccc(N5CCOCC5)c(C(F)(F)F)c4)c3)ccc12 | 59 | 1.44 | 40.9 | 4.57 | 87.2 |  |  |  |  |  |  |  |  |  |  |  |  |  |  | Ratio IC50 [5]: 2
COc1cccc2nc(Nc3cccc(NC(=O)c4cccc(Cl)n4)c3)ccc12 | 4.88 |  |  |  | < 20 | < 20 | < 20 | 23.3 | < 20 | < 20 | < 20 | < 20 | < 20 | < 20 | < 20 | 32.4 | < 20 | 20.6 | < 20 | 
CC(=O)O[C@H]1C(=O)[C@@]2(C)[C@H]([C@H](OC(=O)c3ccccc3)[C@]3(O)C[C@H](OC(=O)[C@H](O)[C@@H](NC(=O)c4ccccc4)c4ccccc4)C(C)=C1C3(C)C)[C@]1(OC(C)=O)CO[C@@H]1C[C@@H]2O |  |  |  |  |  |  |  |  |  |  |  |  |  |  |  |  |  |  |  | Activity [21]: Active
COc1cccc2nc(Nc3cccc(NC(=O)c4ccc5ncccc5c4)c3)ccc12 | 28.6 |  |  |  | 42.4 | 36.9 | 61.1 | 64.2 | 94.6 | 55.9 | 20.9 | 48.5 | < 20 | 53.3 | 51.4 | < 20 | 22.9 | 56.2 | 58 | 
COc1cccc2nc(Nc3cccc(NC(=O)c4ccc(Cl)c(C(F)(F)F)c4)c3)ccc12 | 12.9 |  |  |  | < 20 | 32.9 | 56.8 | 54.8 | 31.8 | 48 | < 20 | 21.5 | 27.4 | < 20 | < 20 | 27.5 | 37.6 | 50.3 | 21.3 | 
COc1cccc2nc(Nc3cccc(NC(=O)c4cc(N5CCOCC5)cc(C(F)(F)F)c4)c3)ccc12 | 38.3 | 0.616 | 5.87 | 1.49 |  |  |  |  |  |  |  |  |  |  |  |  |  |  |  | Ratio IC50 [5]: 2
COc1cccc2nc(Nc3ccc(NC(=O)c4ccc5c(c4)OCCO5)cc3)ccc12 | -1.17 |  |  |  | < 20 | < 20 | < 20 | < 20 | < 20 | < 20 | < 20 | < 20 | < 20 | < 20 | < 20 | < 20 | < 20 | < 20 | < 20 | 
COc1cccc2nc(Nc3ccc(NC(=O)c4ccc(Cl)c(C(F)(F)F)c4)cc3)ccc12 | 6.32 |  |  |  | 21.8 | < 20 | 47.5 | 27.6 | < 20 | < 20 | < 20 | 32 | < 20 | < 20 | < 20 | 22.6 | < 20 | < 20 | < 20 | 
COc1cccc2nc(Nc3cccc(NC(=O)c4ccc5c(c4)OCCO5)c3)ccc12 | 17.8 |  |  |  | < 20 | 33.4 | 67.8 | 75.2 | 39.7 | 56.7 | < 20 | < 20 | < 20 | 32.5 | 48.3 | 26.2 | < 20 | 32.1 | 46 | 
COc1cccc2nc(Nc3cccc(NC(=O)c4cc(C(F)(F)F)cc(C(F)(F)F)c4)c3)ccc12 | 13.6 | 4.79 | > 100 | 9.45 | < 20 | 34.4 | 77.3 | 65.2 | 41.9 | 57.4 | 48 | 67.5 | 23.5 | < 20 | < 20 | 28.6 | 28.2 | 62.7 | < 20 | 
